In patent publication US11691989B2, “Macrocyclic indoles as Mcl-1 inhibitors” (ASCENTAGE PHARMA (SUZHOU) CO., LTD., priority 2018, dated 2023):
≈ marks a conversion by molar mass, not a printed value. Read-outs that look alike come from different tables or passages of the source.

How the values were obtained:
[1] = target: Mcl-1 protein (residues 171-323) (Homo sapiens (Human), UniProt Q07820); assay: Inhibition of Mcl-1 by fluorescence polarization (FP) competitive binding assay with FAM-Bid tracer; conditions: 2 nM FAM-Bid, 20 nM Mcl-1, 30 min, read-out: Mc1-1 (FP)
Procedure, shortened: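 Competitive FP binding of compounds against FAM-Bid tracer (final 2 nM) on Mcl-1 (final 20 nM) in PBS with 0.01% BGG and 0.01% Triton X-100, 5% final DMSO.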

OPM-2 cells = assay: Cell viability assay (OPM-2 cells), CCK-8; format: cell-based; conditions: 5% FBS
Procedure, shortened: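 OPM-2 myeloma cells (20000/well) incubated with serially diluted compound for 24 h at 37 °C, 5% CO2. Viability read by CCK-8 (4 h) absorbance at 450 nm, normalised to vehicle; IC50 from nonlinear regression.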

NCI-H929 cells = assay: Cell viability assay (NCI-H929 cells), CCK-8; format: cell-based; conditions: 5% FBS
Procedure, shortened: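 NCI-H929 cells (20000/well) exposed to serially diluted compounds for 24 h at 37 °C, 5% CO2. Viability by CCK-8, absorbance at 450 nm after 1-4 h, normalized to vehicle-treated cells. IC50 by nonlinear regression.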

[2] = Microsome clearance assay, mouse; format: in vitro ADME; conditions: 0.5 mg/ml protein, 1 mM NADPH, 60 minutes; for Mouse Liver Microsome Clint (μL/min/mg protein): mouse liver microsomes, 5 μM
Procedure, shortened: (§1)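 Pooled liver microsomes (human, male Wistar rat, male CD-1 mouse) at 0.5 mg/ml protein in 0.1M sodium phosphate pH 7.4 with 5 μM test compound and 1 mM NADPH, incubated 60 minutes. Reactions quenched in ice-cold methanol; supernatant analysed by LC/MS/MS (electrospray).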

[3] = Microsome clearance assay, rat; format: in vitro ADME; conditions: 0.5 mg/ml protein, 1 mM NADPH, 60 minutes; for Rat Liver Microsome Clint (μL/min/mg protein): rat liver microsomes, 5 μM
Procedure, shortened: as §1

[4] = Microsome clearance assay, human; format: in vitro ADME; conditions: 0.5 mg/ml protein, 1 mM NADPH, 60 minutes; for Human Liver Microsome Clint (μL/min/mg protein): human liver microsomes, 5 μM
Procedure, shortened: as §1

MV-4-11 cells = assay: MV-4-11 cell viability assay, CCK-8; format: cell-based
Experimental: MV-4-11 cells were obtained from American Type Culture Collection (ATCC). […]
The effect of representative Compounds of the Disclosure on cell viability was determined using Cell Counting Kit-8 (CCK-8) assay according to the manufacturer's instructions. 95 μL of MV-4-11 cell suspension (20000 cells/well) in culture medium were seeded into 96-well plates and cultured 4 hrs. Each tested compound was serially diluted in DMSO, then 5 μL of the compound or DMSO was diluted in 95 μL medium once more. At last, 5 μL of the compound dilution was added to the corresponding well of the cell plate. After the addition of the tested compound, the cells were incubated at 37° C. in an atmosphere of 5% CO2 for 24 hrs. At the end, 10 μL of CCK-8 solution was added to each well of the plate and incubated for 1-4 hrs. The plates were read at 450 nm on the microplate reader (BioTek Synergy 1MF). The readings were normalized to the vehicle cells, and the IC50 was calculated by nonlinear regression analysis using GraphPad Prism 6 software.

[5] = Kinetic solubility assay in PBS buffer; format: physicochemical; conditions: for solubility: PBS buffer, pH 6.5, aqueous buffer, thermodynamic from solid, read-out: Solubility (pH 6.5, μg/mL)
Experimental: Representative Compounds of the Disclosure were tested in a kinetic solubility assay in PBS buffer. PBS buffer was prepared by dissolving 4.86 g of potassium dihydrogen phosphate and 5.09 g of disodium hydrogen phosphate dodecahydrate in 1 L of ultrapure water (final pH 6.5). 0.5 mg of test sample was dissolved in 1 mL of methanol and the stock solution was transferred into 2 mL EP tube, and evaporated at 50° C. for 3 h. To the tube was added 1 mL of PBS buffer and the mixture was stirred and shaken for 1-2 h. The solution was allowed to stand overnight and then filtered before HPLC analysis. Another 1.5 mg of the sample was dissolved in 3 mL of methanol to prepare a calibration curve with a series of concentration range of 5-500 μM. The solubility of each sample was determined by the measured peak area in HPLC.

[6] = Homo sapiens, MV4-11, 24 h, read-out: MV-4-11 IC50 (5% FBS, nM), MV-4-11 cells, 5% FBS, 24 hrs, CCK-8

Mcl-1 protein (residues 171-323), sequence (Q07820 171-323): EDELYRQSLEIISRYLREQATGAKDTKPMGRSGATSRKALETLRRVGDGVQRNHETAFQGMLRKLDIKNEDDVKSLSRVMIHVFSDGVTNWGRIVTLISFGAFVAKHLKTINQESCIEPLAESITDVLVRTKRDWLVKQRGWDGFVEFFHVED

SMILES	IC50 [1]	IC50 (OPM-2 cells; 24 hours)	IC50 (NCI-H929 cells; 24 hrs)	Mouse Liver Microsome Clint (μL/min/mg protein) [2]	Rat Liver Microsome Clint (μL/min/mg protein) [3]	Human Liver Microsome Clint (μL/min/mg protein) [4]	IC50 (MV-4-11 cells; [6])	Solubility (pH 6.5, μg/mL) ([5]; PBS buffer pH 6.5)	IC50 (MV-4-11 cells; read-out: MV-4-11 IC50 (5% FBS), MV-4-11 cells, 5% FBS, 24 hrs, CCK-8)	solubility [5]	IC50 (OPM-2 cells; Homo sapiens, OPM-2, 24 h)	IC50 (NCI-H929 cells; Homo sapiens, NCI-H929, 24 h)	microsomal CLint at 5 μM ([2]; male, CD-1, mouse, pooled liver microsomes, pH 7.4, mouse liver microsomes, read-out: Mouse Liver Microsome Clint (μL/min/mg protein))	microsomal CLint at 5 μM ([3]; male, Wister, rat, pooled liver microsomes, pH 7.4, rat liver microsomes, read-out: Rat Liver Microsome Clint (μL/min/mg protein))	microsomal CLint at 5 μM ([4]; human, pooled liver microsomes, pH 7.4, human liver microsomes, read-out: Human Liver Microsome Clint (μL/min/mg protein))
Cc1c(C(=O)O)n2c3ccc(Cl)c(c13)-c1c(nn(C)c1C)CSCc1cc(n(C)n1)CSc1cc(c3ccccc3c1)OCCC2 [Cpd. No. 5, (Z)-1^5-chloro-1^3,2^1,2^5,6^1-tetramethyl-1^1H,2^1H,6^1H-10-oxa-4,8-dithia-1(4,1)-indola-2(4,3), 6(3,5)-dipyrazola-9(3,1)-naphthalenacyclotridecaphane-1^2-carboxylic acid]	17 nM	192 nM	33 nM	48.4 μL/min/mg protein	58.8 μL/min/mg protein	15.8 μL/min/mg protein	43 nM	2 μg/mL	–	–	–	–	–	–	–
Cc1c(C(=O)O)n2c3ccc(Cl)c(c13)-c1c(nn(C)c1C)CSCc1cc(n(C)n1)CSc1cc(c3ccc(F)cc3c1)OCCC2 [Cpd. No. 14, (Z)-1^5-chloro-9^6-fluoro-1^3,2^1,2^5,6^1-tetramethyl-1^1H,2^1H,6^1E-10-oxa-4,8-dithia-1(4,1)-indola-2(4,3),6(3,5)-dipyrazola-9(3,1)-naphthalenacyclotridecaphane-1^2-carboxylic acid]	19 nM	52 nM	28 nM	28.6 μL/min/mg protein	27.2 μL/min/mg protein	5.0 μL/min/mg protein	–	–	28 nM	10 µg/mL (≈ 14.5 µM)	–	–	–	–	–
Cc1c(C(=O)O)n2c3ccc(Cl)c(c13)-c1c(nn(C)c1C(F)F)CSCc1cc(n(C)n1)CSc1cc(c3ccc(F)cc3c1)OCCC2 [Cpd. No. 18, (Z)-1^5-chloro-2^5-(difluoromethyl)-9^6-fluoro-1^3,2^1,6^1-trimethyl-1^1H,2^1H,6^1H-10-oxa-4,8-dithia-1(4,1)-indola-2(4,3),6(3,5)-dipyrazola-9(3,1)-naphthalenacyclotridecaphane-1^2-carboxylic acid]	15 nM	–	–	–	–	–	93 nM	–	–	< 1 µg/mL	189 nM	63 nM	42 µL/min/mg	22.6 µL/min/mg	22.2 µL/min/mg
